In brackets after ≈: the same amount, converted by molar mass. Several values for one entry are separate records, joined by “and”; a condition that tells them apart may be missing. Equal values may be shown once. Read-outs that look alike come from different tables or passages of the source.
What was measured:
[1] = tested on: non-pathogenic Neff's strain of Acanthamoeba castellanii; set-up: method as in Sifaoui et al. (2017) 44; details: A. castellanii Neff, 96 h of incubation, ref Sifaoui et al. (2017) 44; cited from earlier work
[2] = tested on: the other tested bacteria and the strain of Candida albicans; assay: MIC/MBC, other tested bacteria and Candida albicans; type: cell-based; details: listed as caffeic acid
Method: The antimicrobial activity of caffeic acid and its semi-synthetic derivates was tested against Gram-positive (Staphylococcus aureus CCM 4750, methicillin-resistant; Staphylococcus aureus CCM 4223, methicillin-susceptible; Enterococcus faecalis CCM 4224) and Gram-negative bacteria (Pseudomonas aeruginosa CCM 3955; Escherichia coli CCM 3954; Klebsiella pneumoniae CCM 4415; Proteus mirabilis CCM 7188), and one strain of a yeast Candida albicans (CCM 8267). Microbial strains were purchased from the Czech Collection of Microorganisms, Brno, Czech Republic, and preserved in aliquots in cryoprotective media at −20 °C until the testing. Revival of cryoprotected bacteria took place by overnight cultivation on blood agar and an additional passage on blood agar. Minimal inhibitory concentrations (MIC) against bacteria were detected by broth microdilution test in sterile 96-well U-shaped microtiter plates (Roll s.a.s., Piove di Sacco, Italy) according to the EUCAST recommendations. The test was performed in 100 μL volumes in microtiter plate wells with a final bacterial concentration of 5 × 10^5 CFU·mL^−1. […] The minimal bactericidal/fungicidal concentrations (MBC/MFC) were detected by point-inoculation of 5 μL aliquots from test wells without visible growth on solid agar media free of antimicrobials. […]

[3] = tested on: Candida albicans CCM 8267; assay: Broth dilution MIC and MFC for yeasts; type: cell-based; details: for MIC: CCM8267, C. albicans CCM 8267; for MFC: CCM8267, C. albicans CCM 8267, inactivating 99.9% of inoculum
Method: The antimicrobial activity of caffeic acid and its semi-synthetic derivates was tested against Gram-positive (Staphylococcus aureus CCM 4750, methicillin-resistant; Staphylococcus aureus CCM 4223, methicillin-susceptible; Enterococcus faecalis CCM 4224) and Gram-negative bacteria (Pseudomonas aeruginosa CCM 3955; Escherichia coli CCM 3954; Klebsiella pneumoniae CCM 4415; Proteus mirabilis CCM 7188), and one strain of a yeast Candida albicans (CCM 8267). Microbial strains were purchased from the Czech Collection of Microorganisms, Brno, Czech Republic, and preserved in aliquots in cryoprotective media at −20 °C until the testing. Revival of cryoprotected bacteria took place by overnight cultivation on blood agar and an additional passage on blood agar. Minimal inhibitory concentrations (MIC) against bacteria were detected by broth microdilution test in sterile 96-well U-shaped microtiter plates (Roll s.a.s., Piove di Sacco, Italy) according to the EUCAST recommendations. The test was performed in 100 μL volumes in microtiter plate wells with a final bacterial concentration of 5 × 10^5 CFU·mL^−1. Antifungal activity testing was performed according to the EUCAST-recommended method for the determination of broth dilution minimum inhibitory concentrations of antifungal agents for yeasts, with some modifications. The final yeast concentration in the test wells was 10^4 CFU·mL^−1. The minimal bactericidal/fungicidal concentrations (MBC/MFC) were detected by point-inoculation of 5 μL aliquots from test wells without visible growth on solid agar media free of antimicrobials. Mueller–Hinton broth and agar were used for bacteria, and Sabouraud dextrose broth and agar for fungi (OXOID, Basingstoke, Hampshire, UK). The tested agents were dissolved in 50% ethanol, and serial dilutions were prepared in the test medium to obtain final concentrations ranging from 5000 to 5 μg·mL^−1, which corresponds to 27,753—54 μM for caffeic acid, 7251—14 μM for CAP 6, 6967—14 μM for CAP 8, 6705—13 μM for CAP 10 and 6462—13 μM for CAP 12. Wells with media free of bacteria served as sterility control and wells with bacteria without antimicrobial agents were used as growth control. The MIC was determined to be the lowest concentration of the antimicrobial agent inhibiting the growth of the tested microorganism, and the MBC/MFC was determined to be the lowest concentration, inactivating 99.9% of microbial inoculum. All tests were performed in three independent runs to exclude possible excessive values due to permissible measurement error.

[4] = tested on: Acanthamoeba trophozoites; assay: Amoebicidal activity assay, both strains; type: cell-based
Method: The activity against two clinical isolates of free-living amoebae, Acanthamoeba lugdunensis (strain AcaVNAK02) and Acanthamoeba quina (strain AcaVNAK03), both belonging to the T4 genotype, was tested in vitro as previously described. The trophozoites were cultivated in 25 cm^2 tissue culture flasks under axenic conditions in peptone-yeast extract-glucose medium (PYG). The cultivation was carried out under aerobic conditions at laboratory temperature. For the experiments, a fresh 72 h culture was used. Acanthamoebae adherent to flasks represented the trophozoite form and was used in the subsequent assay. Experiments were carried out in 96-well microtiter plates under sterile conditions at 37 °C. Each well was seeded with 100 µL (2 × 10^5 cells mL^−1) of a trophozoite suspension. Then, 100 µL of a freshly prepared medium containing a tested compound at 6 different concentrations was added to all wells, except for the untreated control wells that received 100 µL of the pure medium. Each compound was tested at final concentrations of 500, 250, 125, 62.5, 31.25, and 15.6 µM. The reduction of trophozoites was recorded after 24 h by counting the surviving cells in a Bürker–Türk hemocytometer. […] The viability of trophozoites was determined by trypan blue exclusion. […]

[5] = set-up: method as in PMID 11743793; details: cited from earlier work
[6] = Equilibrium surface tension measurements (Wilhelmy plate); type: physicochemical; details: 25 °C; for cmc (critical micelle concentration) / γcmc (surface tension at the cmc): aqueous solution; for Acmc (surface area per head group at surface saturation): water/air interface, from Gibbs adsorption isotherm
Method: The physicochemical properties of the compounds were investigated by the measurements of surface tension of their aqueous solutions. The critical micelle concentration (cmc), the surface tension value at the cmc (γcmc), and the surface area per head group at the surface saturation (Acmc) were determined.
The equilibrium surface tension measurements were carried out according to the procedure described previously. The Wilhelmy plate technique was used for the determination of the solvent surface tension values. Measurements were performed with a Krüss 100 MK2 tensiometer. All samples were prepared by dissolving amphiphilic compounds in deionized water. The stock solutions were prepared in a volumetric flask. The measurements were performed at 25 ± 0.1 °C. The measurements of equilibrium surface tension were taken repeatedly. The values were recorded every 360 s. The measurement was stopped if the difference between the values of two successive measurements was less than 5 × 10^−5 N·m^−1. The breakpoint of the linear parts of the surface tension vs. log c curve was used for the determination of the critical micelle concentration (cmc) and surface tension at the cmc (γcmc). The adsorbed amount of surfactant Γcmc was also determined from surface tension data. The value was calculated using the Gibbs adsorption isotherm: Γcmc=dγ/dlogcT/2.303iRT where γ represents the surface tension (mN/m), c is the concentration of surfactant, i represents the prefactor (CAP have i = 2), R is the gas constant, and T represents the absolute temperature. The slope below the cmc in the surface tension vs. log c plots was used for the determination of the surface excess. The values of area per head group at the water/air interface (Acmc) were obtained from the following equation: Acmc=10^18/NAΓcmc where NA represents the Avogadros constant.

SMILES	IC50 (50% growth inhibition) [1] [µg/mL]	MIC/MBC [2]	MIC [3] [µM]	MFC [3] [µM]	EC50 ([4]; Acanthamoeba, after 24 h) [mM]	plasma levels of caffeic acid ([5]; 1 h after consumption of 300 mL red wine (about 2.8 mg caffeic acid)) [ng/mL]	plasma levels of caffeic acid ([5]; 1 h after consumption of 300 mL red wine, approx. conversion)	times higher inhibitory activity than phosphanium salts of rosmarinic acid ([4]; comparison to compounds of ref 15)	cmc (critical micelle concentration) [6]	γcmc (surface tension at the cmc) [6] [mN·m^−1]	Acmc (surface area per head group at surface saturation) [6] [nm^2]
O=C(O)C=Cc1ccc(O)c(O)c1 [CA, 3-(3,4-dihydroxyphenyl)-2-propenoic acid, reference compound]	> 100	exceeded 6900 μM and > 1200 μg/mL	13900 (≈ 2500 µg/mL)	13900 (≈ 2500 µg/mL)	≥ 3	4.9 ± 0.3	approx. 27.2 nM				
CC(=O)Oc1ccc(/C=C/C(=O)OCCCCCC[P+](c2ccccc2)(c2ccccc2)c2ccccc2)cc1OC(C)=O [CAP 6, P,P,P-triphenyl-6-{(2E)-3-[3,4-(diacetyloxy)penyl]prop-2-enoyloxy}hexane-1-phosphanium bromide]			57	57				more than 15 times	7.5 × 10^−3 mol·dm^−3	36.4	0.84
CC(=O)Oc1ccc(/C=C/C(=O)OCCCCCCCC[P+](c2ccccc2)(c2ccccc2)c2ccccc2)cc1OC(C)=O [CAP 8, P,P,P-triphenyl-8-{(2E)-3-[3,4-(diacetyloxy)penyl]prop-2-enoyloxy}okctane-1-phosphanium bromide]			27	27					5.2 × 10^−3 mol·dm^−3	37.7	0.82
CC(=O)Oc1ccc(/C=C/C(=O)OCCCCCCCCCC[P+](c2ccccc2)(c2ccccc2)c2ccccc2)cc1OC(C)=O [CAP 10, P,P,P-triphenyl-10-{(2E)-3-[3,4-(diacetyloxy)penyl]prop-2-enoyloxy}decane-1-phosphanium bromide]			13	13					2.2 × 10^−3 mol·dm^−3	37.1	1.02
CC(=O)Oc1ccc(/C=C/C(=O)OCCCCCCCCCCCC[P+](c2ccccc2)(c2ccccc2)c2ccccc2)cc1OC(C)=O [CAP 12, P,P,P-triphenyl-12-{(2E)-3-[3,4-(diacetyloxy)penyl]prop-2-enoyloxy}dodecane-1-phosphanium bromide]			25	25					1.0 × 10^−3 mol·dm^−3	39.4	1.33

— article PMC10817097, “Caffeic Acid Phosphanium Derivatives: Potential Selective Antitumor, Antimicrobial and Antiprotozoal Agents” (International Journal of Molecular Sciences, 2024)
